Here are results for 29 molecules from patent US10703756B2, “Pyrrolo[2,3-D]pyrimidinyl, pyrrolo[2,3-B]pyrazinyl, pyrrolo[2,3-B]pyridinyl acrylamides and epoxides thereof” (Pfizer Inc., priority 2015, dated 2020).

Test [1] relates to IL-15 induced STAT5 phosphorylation in human whole blood lymphocytes. Description: HWB IL-15 Induced STAT5 Phosphorylation Assay. Format: cell-based. The note with it: Lymphocyte, IL-15 final 50 ng/ml, read-out: HWB_IL15 pSTAT5 IC50. The procedure, abridged:
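Heparinised human whole blood preincubated with compound (0.2% DMSO final) 45 min at 37° C, then stimulated with human IL-15 (50 ng/ml final) for 15 min. After lyse/fix and Perm Buffer III permeabilisation, stained overnight at 4° C with AlexaFluor647 anti-phospho-STAT5; read by flow cytometry gated on total lymphocytes.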

Test [2] has as its system IL-15 induced P-STAT5 in human PBMC. Description: PBMC IL-15 Induced P-STAT5. The format is cell-based. The note with it: human PBMC, IL-15 final 41 ng/mL; read-out: PBMC IL15_pSTAT5_IC50. The procedure, abridged:
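Flow cytometry gated on total lymphocytes measured STAT5 staining (Alexa Fluor 647 antibody, overnight, 4 °C) in fixed, methanol-permeabilised human PBMC. Cells had received compound for 15 min at 37 °C (0.2% DMSO final), followed by 41 ng/mL final human IL-15 for 15 min.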

Consider `C=CC(=O)N1CC[C@@H](Nc2cnc3[nH]cc(C(=O)NCC)c3n2)[C@H](C)C1` (single isomer, unassigned) [Example 44], for which the IC50 in test [1] is 1230 nM; in test [2] it was 315 nM.

For the molecule `C=CC(=O)N1CCC(Oc2cnc3[nH]cc(C(=O)N[C@H]4CC[C@@H](F)C4)c3n2)CC1` [Example 225, 2-[(1-acryloylpiperidin-4-yl)oxy]-N-[(1S,3R)-3-fluorocyclopentyl]-5H-pyrrolo[2,3-b]pyrazine-7-carboxamide], the IC50 amounted to 772 nM in test [1] and 170 nM in test [2].

On to `C=CC(=O)N1CCN(c2cnc3[nH]cc(C(=O)N[C@@H](C)COC)c3n2)CC1` [Example 295, 2-(4-acryloylpiperazin-1-yl)-N-[(2S)-1-methoxypropan-2-yl]-5H-pyrrolo[2,3-b]pyrazine-7-carboxamide], for which the IC50 came to 199 nM in test [1] and 71 nM in test [2].

Regarding `C=CC(=O)N1CCN(c2cnc3[nH]cc(C(=O)N[C@H]4CCO[C@H]4C)c3n2)CC1(C)C` [Example 166, 3-({[2-(4-acryloyl-3,3-dimethylpiperazin-1-yl)-5H-pyrrolo[2,3-b]pyrazin-7-yl]carbonyl}amino)-2,5-anhydro-1,3,4-trideoxy-L-threo-pentitol], the results for the IC50 in test [1] and in test [2] were 1210 nM and 168 nM, respectively.

`C=CC(=O)N1CC(CF)CC(Nc2ncnc3[nH]ccc23)C1` (mixture of isomers) [Example 102, Cis-racemic-1-[3-(fluoromethyl-5-(7H-pyrrolo[2,3-d]pyrimidin-4-ylamino)piperidin-1-yl]prop-2-en-1-one]: the IC50 in test [1] is 1530 nM; in test [2] it was 237 nM.

As for `C=CC(=O)N1CC[C@H](Nc2cnc3[nH]cc(C(=O)NCC)c3n2)C[C@H]1C` (single isomer, unassigned) [Example 41], the figures for the IC50 in test [1] and in test [2] were 515 nM and 147 nM, respectively.

Take `C=CC(=O)N1CCC(C)(Nc2cnc3[nH]cc(C(=O)NC4CCC4)c3n2)CC1` [Example 324, 2-[(1-acryloyl-4-methylpiperidin-4-yl)amino]-N-cyclobutyl-5H-pyrrolo[2,3-b]pyrazine-7-carboxamide]: the IC50 was determined as 1270 nM in test [1] and 203 nM in test [2].

As to `C=CC(=O)N1CCN(c2cnc3[nH]cc(C(=O)N[C@H](C)COC)c3n2)CC1` [Example 332], the IC50 in test [1] came to 221 nM; in test [2], 87.7 nM.

As for `C=CC(=O)N1CCC(Oc2cnc3[nH]cc(C(=O)N[C@H](C)COC)c3n2)CC1` [Example 214, 2-[(1-acryloylpiperidin-4-yl)oxy]-N-[(2R)-1-methoxypropan-2-yl]-5H-pyrrolo[2,3-b]pyrazine-7-carboxamide], the values for the IC50 in test [1] and in test [2] were 195 nM and 56.9 nM, respectively.

As to `C=CC(=O)N1CCC(Nc2cnc3[nH]cc(C(=O)NCc4ccc(F)cc4)c3n2)CC1` [Example 188, 2-[(1-acryloylpiperidin-4-yl)amino]-N-(4-fluorobenzyl)-5H-pyrrolo[2,3-b]pyrazine-7-carboxamide], the IC50 is 913 nM in test [1] and 88 nM in test [2].

On to `C=CC(=O)N1CC[C@@H](Oc2cnc3[nH]cc(C(=O)NCC)c3n2)C[C@@H]1C` (racemic) [Example 77, Trans-racemic-2-{[1-acryloyl-2-methylpiperidin-4-yl]oxy}-N-ethyl-5H-pyrrolo[2,3-b]pyrazine-7-carboxamide], for which the IC50 was 2450 nM in test [1] and 561 nM in test [2].

In the case of `C=CC(=O)N1CC[C@H](Nc2cnc3[nH]cc(C(=O)NCC)c3n2)[C@H](OC)C1` [Example 326, 2-{[(3R,4S)-1-acryloyl-3-methoxypiperidin-4-yl]amino}-N-ethyl-5H-pyrrolo[2,3-b]pyrazine-7-carboxamide], the values for the IC50 in test [1] and in test [2] were 780 nM and 330 nM, respectively.

Regarding `C=CC(=O)N1CCC(Nc2cnc3[nH]cc(C(=O)NCC4CC4)c3n2)CC1` [Example 172, 2-[(1-acryloylpiperidin-4-yl)amino]-N-(cyclopropylmethyl)-5H-pyrrolo[2,3-b]pyrazine-7-carboxamide], the results for the IC50 in test [1] and in test [2] were 322 nM and 81.3 nM, respectively.

Turning to `C=CC(=O)N1CC[C@H](Nc2cnc3[nH]cc(C(=O)NCC4CCCC4)c3n2)[C@H](OC)C1` [Example 284, 2-{[(3R,4S)-1-acryloyl-3-methoxypiperidin-4-yl]amino}-N-(cyclopentylmethyl)-5H-pyrrolo[2,3-b]pyrazine-7-carboxamide], the IC50 was 819 nM in test [1] and 186 nM in test [2].

With `C=CC(=O)N1CCC(Nc2cnc3[nH]cc(C(=O)NCc4ccccc4)c3n2)CC1` [Example 187, 2-[(1-acryloylpiperidin-4-yl)amino]-N-benzyl-5H-pyrrolo[2,3-b]pyrazine-7-carboxamide], the IC50 was found to be 240 nM in test [1] and 54.7 nM in test [2].

Consider `C=CC(=O)N1CC[C@@H](Nc2cnc3[nH]cc(C(=O)NCC)c3n2)[C@@H](C)C1` (single isomer, unassigned) [Example 38], for which the IC50 amounted to 1160 nM in test [1] and 205 nM in test [2].

Consider `C=CC(=O)N1C[C@H](CN2CC[C@H](C#N)C2)C[C@H](Nc2ncnc3[nH]ccc23)C1` [Example 108, (S)-1-(((3S,5S)-5-((7H-pyrrolo[2,3-d]pyrimidin-4-yl)amino)-1-acryloylpiperidin-3-yl)methyl)pyrrolidine-3-carbonitrile], for which the results for the IC50 in test [1] and in test [2] were 3480 nM and 3260 nM, respectively.

As to `C=CC(=O)N1CC[C@H](Nc2cnc3[nH]cc(C(=O)NCC(F)(F)F)c3n2)[C@H](OC)C1` [Example 293, 2-{[(3R,4S)-1-acryloyl-3-methoxypiperidin-4-yl]amino}-N-(2,2,2-trifluoroethyl)-5H-pyrrolo[2,3-b]pyrazine-7-carboxamide], the IC50 in test [1] came to 818 nM; in test [2] it was 218 nM.

Turning to `C=CC(=O)N1CC[C@@H](Nc2cnc3[nH]cc(C(=O)NCC(C)(F)F)c3n2)[C@@H](OC)C1` [Example 321, 2-{[(3S,4R)-1-acryloyl-3-methoxypiperidin-4-yl]amino}-N-(2,2-difluoropropyl)-5H-pyrrolo[2,3-b]pyrazine-7-carboxamide], the IC50 in test [1] stood at 999 nM; in test [2], 310 nM.

`C=CC(=O)N1CCC(Oc2cnc3[nH]cc(C(=O)NC(C)(C)CC)c3n2)CC1` [Example 209, 2-[(1-acryloylpiperidin-4-yl)oxy]-N-(2-methylbutan-2-yl)-5H-pyrrolo[2,3-b]pyrazine-7-carboxamide]: the IC50 is greater than 10000 nM in test [1] and 206 nM in test [2].

For the molecule `C=CC(=O)N1C[C@@H](CC#N)C[C@@H](Nc2ncnc3[nH]ccc23)C1` (racemic) [Example 105, Cis-racemic-[1-acryloyl-5-(7H-pyrrolo[2,3-d]pyrimidin-4-ylamino)piperidin-3-yl]acetonitrile], the IC50 in test [1] turned out to be 1070 nM; in test [2], 324 nM.

With `C=CC(=O)N1CCN(c2cnc3[nH]cc(C(=O)NCC(C)C)c3n2)C[C@@H]1CC(C)C` [Example 288, 2-[(3S)-4-acryloyl-3-(2-methylpropyl)piperazin-1-yl]-N-(2-methylpropyl)-5H-pyrrolo[2,3-b]pyrazine-7-carboxamide], the IC50 was 2160 nM in test [1] and 151 nM in test [2].

On to `C=CC(=O)N1CCC(Nc2cnc3[nH]cc(C(=O)NCc4cccc(F)c4)c3n2)CC1` [Example 176, 2-[(1-acryloylpiperidin-4-yl)amino]-N-(3-fluorobenzyl)-5H-pyrrolo[2,3-b]pyrazine-7-carboxamide], for which the IC50 is 318 nM in test [1] and 24 nM in test [2].

As to `C=CC(=O)N1CC[C@@H](Oc2cnc3[nH]cc(C(=O)N[C@@H](C)COC)c3n2)C[C@@H]1C` (racemic) [Example 71, Trans-racemic-2-{[1-acryloyl-2-methylpiperidin-4-yl]oxy}-N-[(2S)-1-methoxypropan-2-yl]-5H-pyrrolo[2,3-b]pyrazine-7-carboxamide], the IC50 was found to be 931 nM in test [1] and 260 nM in test [2].

Take `C=CC(=O)N1CC[C@H](Nc2cnc3[nH]cc(C(=O)NCC(C)CC(F)(F)F)c3n2)[C@H](OC)C1` (mixture of isomers) [Example 328, Racemic-2-{[(3R,4S)-1-acryloyl-3-methoxypiperidin-4-yl]amino}-N-(4,4,4-trifluoro-2-methylbutyl)-5H-pyrrolo[2,3-b]pyrazine-7-carboxamide]: the results for the IC50 in test [1] and in test [2] were 287 nM and 143 nM, respectively.

`C=CC(=O)N1CCN(c2cnc3[nH]cc(C(=O)N[C@H](CC)CC#N)c3n2)C[C@@H]1CC(C)C` [Example 314, 2-[(3S)-4-acryloyl-3-(2-methylpropyl)piperazin-1-yl]-N-[(2R)-1-cyanobutan-2-yl]-5H-pyrrolo[2,3-b]pyrazine-7-carboxamide]: the IC50 in test [1] was 402 nM; in test [2], 115 nM.

With `C=CC(=O)N1CCC[C@H](Nc2cnc3[nH]cc(C(=O)NCC)c3n2)C1` (single isomer, unassigned) [Example 36], the IC50 in test [1] stood at 1090 nM; in test [2], 176 nM.

For `C=CC(=O)N1CC[C@H](Nc2cnc3[nH]cc(C(=O)NCCCC(F)(F)F)c3n2)[C@H](OC)C1` [Example 319, 2-{[(3R,4S)-1-acryloyl-3-methoxypiperidin-4-yl]amino}-N-(4,4,4-trifluorobutyl)-5H-pyrrolo[2,3-b]pyrazine-7-carboxamide], the IC50 in test [1] was determined as 396 nM; in test [2], 211 nM.

With `C=CC(=O)N1CCC(Nc2cnc3[nH]cc(C(=O)NCc4ccccc4F)c3n2)CC1` [Example 196, 2-[(1-acryloylpiperidin-4-yl)amino]-N-(2-fluorobenzyl)-5H-pyrrolo[2,3-b]pyrazine-7-carboxamide], the IC50 in test [1] came out at 362 nM; in test [2] it was 54.7 nM.
